Laboratory results from US4863918A, “Enamine quaternary compounds, methods of making and their use as muscle relaxants” (BOC, Inc., priority 1988, dated 1989).

Key:
paw twitch [1] = assay: Twitch depression (muscle relaxant effect) in anesthetized dogs; dog paw twitch; format: in vivo, mongrel dogs; details: Table V; for Equi-efficacious dose / ED90: dog paw twitch; for Duration (DURAT.) / Onset / Recovery (RECOV.): dog, at equi-efficacious dose; for ED90: Canis lupus familiaris, iv, read-out: Equi-efficacious dose
Description: (§1) Mongrel dogs were injected with 50 mg/kg of pentobarbital until the onset of anesthesia as determined by the eyeblink reflex test. The injectable solutions prepared above were administered intravenously to the anesthesized mongrel dogs and measurements were made of the muscle relaxant effect including maximum twitch depression, onset, duration and recovery time in a clinically known manner. Each of the subjects were compared with a control animal receiving an injection of distilled water.

paw twitch [2] = assay: Twitch depression (muscle relaxant effect) in anesthetized rabbits; rabbit paw twitch; format: in vivo, New Zealand White rabbits; details: Table IV; for Equi-efficacious dose / ED90: rabbit paw twitch; for Duration (DURAT.) / Onset / Recovery (RECOV.): rabbit, at equi-efficacious dose; for ED90: Oryctolagus cuniculus, read-out: Equi-efficacious dose
Description: [The procedure below names another organism; the source lists this organism under the same test.] as §1
The same compound of the present invention as in
A number of compounds in accordance with the present invention were tested for their neuromuscular blockade Properties. Specifically, the acid addition salts of the compounds were dissolved in sterile water for injection.

[3] = Cardiovascular change (HR, BP) at equi-efficacious dose in rabbits; format: in vivo; details: rabbit
[4] = Cardiovascular change (HR, BP) at equi-efficacious dose in dogs; format: in vivo; details: dog
neuromuscular blockade = details: background, in words; cited from earlier work
[5] = Table IV, at equi-efficacious dose
[6] = Table V, at equi-efficacious dose
[7] = depolarizer, based on twitch recovery not to-f

Row | SMILES | Equi-efficacious dose (paw twitch [1]) [mg/kg] | Duration (DURAT.) (paw twitch [1]) [min] | Onset (paw twitch [1]) [s] | Recovery (RECOV.) (paw twitch [1]) [min] | Equi-efficacious dose (paw twitch [2]) [mg/kg] | Duration (DURAT.) (paw twitch [2]) [min] | Onset (paw twitch [2]) [s] | Recovery (RECOV.) (paw twitch [2]) [min] | BP % ([3]; in vivo) [%] | HR % ([3]; in vivo) [%] | BP % ([4]; in vivo) [%] | HR % ([4]; in vivo) [%] | ED90 (paw twitch [1]) [mg/kg] | ED90 (paw twitch [2]) [mg/kg] | BP % [3, 5] [%] | HR % [3, 5] [%] | BP % [4, 6] [%] | HR % [4, 6] [%] | duration of paralysis and recovery (neuromuscular blockade) | further results
1 | C[C@]12CC[C@@H]([N+]3(C)CCCC3)C[C@@H]1CC[C@@H]1[C@@H]2CC[C@@]2(C)[C@H]1CCC[N+]2(C)C.[Br-].[Br-] [RGH-4201] | 0.077 | 28.3 | 123.6 | 22.0 | 0.070 | 7.7 | 35.4 | 6.1 | 2.6 | 0.3 | 1.4 | 11.3 |  |  |  |  |  |  |  | 
2 | COc1ccc(CC2c3cc(OC)c(OC)cc3CC[N+]2(C)CCC(=O)OCCCCCOC(=O)CC[N+]2(C)CCc3cc(OC)c(OC)cc3C2Cc2ccc(OC)c(OC)c2)cc1OC (stereo not drawn) [atracurium] |  | 27.9 | 159.4 | 20.4 |  | 14.3 | 126.9 | 12.2 | -3.4 | -1.0 | 0.3 | 3.3 | 0.086 | 0.046 |  |  |  |  |  | 
3 | COc1cc2c3cc1Oc1cc(ccc1O)C[C@@H]1c4c(cc(OC)c(O)c4Oc4ccc(cc4)C[C@@H]3N(C)CC2)CC[N+]1(C)C [d-tubocurarine] | 0.254 | 60.0 | 150.8 | 55.3 | 0.229 | 37.3 | 85.0 | 34.8 |  |  |  |  |  |  | 4.8 | -0.3 | -25.8 | 8.7 | maintain paralysis for an undesirably long time and the recovery period is slow | 
4 | CC(=O)O[C@H]1C[C@@H]2CC[C@@H]3[C@H](CC[C@@]4(C)[C@H]3C[C@H]([N+]3(C)CCCCC3)[C@@H]4OC(C)=O)[C@@]2(C)C[C@@H]1[N+]1(C)CCCCC1 [pancuronium] |  | 45.7 | 169.0 | 35.6 |  | 32.5 | 147.5 | 17.4 |  |  |  |  | 0.013 | 0.022 | 2.7 | 0.0 | -1.8 | 0.2 | maintain paralysis for an undesirably long time and the recovery period is slow | 
5 | C[N+](C)(C)CCOC(=O)CCC(=O)OCC[N+](C)(C)C [succinylcholine] |  |  | 98.9 |  |  |  | 39.4 |  |  |  |  |  | 0.043 | 0.447 | -4.1 | 0.2 | 25.7 | 34.9 |  | Duration (DURAT.) (paw twitch [1]; [7]): 8.8 min; Recovery (RECOV.) (paw twitch [1]; [7]): 5.4 min; Duration (DURAT.) (paw twitch [2]; [7]): 18.6 min; Recovery (RECOV.) (paw twitch [2]; [7]): 18.6 min; reversibility by anticholinesterase drugs (neuromuscular blockade): not easily reversed by anticholinesterase drugs
6 | CC(=O)O[C@H]1C[C@@H]2CC[C@@H]3[C@H](CC[C@@]4(C)[C@H]3C[C@H]([N+]3(C)CCCCC3)[C@@H]4OC(C)=O)[C@@]2(C)C[C@@H]1N1CCCCC1 [vecuronium] |  | 26.6 | 171.0 | 21.8 |  | 16.8 | 97.3 | 9.6 |  |  |  |  | 0.019 | 0.019 | 1.1 | -1.9 | 2.3 | 3.5 |  | 
